Like-named read-outs stand apart in the source and are kept apart here.
Columns and labels:
[1] = test system: JAK2-pSTAT5; test: GM-CSF induced pSTAT5 in human PBMC; assay type: cell-based; details: read-out: JAK2-pSTAT5 EC50
Procedure: Human PBMC are isolated from buffy coat and are stored frozen for assays as needed. […] 15 μl of compound or DMSO is added to the well at the desired concentrations and incubated at 1 hr at 37 C. 15 μl of stimulus (final concentration of 1.7 ng/mL IL-12) is added for 30 minutes prior to pSTAT4 and total STAT4 analysis using cell lysates prepared and analyzed by MSD reagents as per manufacturer protocol. The final DMSO concentration of compound in the assay is 0.1%.
Cells are prepared for analysis as in the above procedure and 15 μl of GM-CSF (final concentration 5 ng/mL) is added for 20 minutes prior to pSTAT5 and total STAT5 analysis using cell lysates prepared and analyzed by MSD reagents as per manufacturer protocol. The final DMSO concentration of compound in the assay is 0.1%.

[2] = test system: Tyk2-pSTAT4; test: IL-12 induced pSTAT4 in human PBMC; assay type: cell-based; details: read-out: Tyk2-pSTAT4 EC50
Procedure: Human PBMC are isolated from buffy coat and are stored frozen for assays as needed. Cells for assay are thawed and resuspended in complete media containing serum, then cells are diluted to 1.67 E6 cells/ml so that 120 μl per well is 200,000 cells. 15 μl of compound or DMSO is added to the well at the desired concentrations and incubated at 1 hr at 37 C. 15 μl of stimulus (final concentration of 1.7 ng/mL IL-12) is added for 30 minutes prior to pSTAT4 and total STAT4 analysis using cell lysates prepared and analyzed by MSD reagents as per manufacturer protocol. The final DMSO concentration of compound in the assay is 0.1%.

[3] = biological target: JAK2 (Homo sapiens (Human), UniProt O60674); test: JAK2 activity inhibition assay (radioactive kinase assay / Caliper assay); assay type: biochemical; details: read-out: JAK2 Ki
Procedure, shortened: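 Mobility-shift (Caliper) read-out of phosphorylated peptide substrate. Compound diluted in 25 mM HEPES pH 7.5, 0.01% Brij-35, 0.01% Triton, 0.5 mM EGTA; enzyme added, then peptide plus ATP in 10 mM MgCl2. Incubated 25 min at 28° C, stopped with EDTA buffer.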

[4] = biological target: TYK2 (Homo sapiens (Human), UniProt P29597); test: Tyk2 activity inhibition assay (radioactive kinase assay / Caliper assay); assay type: biochemical
Procedure, shortened: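 Radiometric format: TYK2 with peptide substrate (20 μM) and 33P-ATP at 10 μM in HEPES pH 7.5, 1% DMSO, 120 min at room temp, P81 paper capture. Caliper mobility-shift format: TYK2 9.75 nM, peptide 30 at 3 uM, ATP 16 uM (also 1 mM), 25 min at 28° C.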

[5] = GM-CSF induced pSTAT5, human PBMC
[6] = IL-12 induced pSTAT4, human PBMC

Sequence of JAK2 (O60674 whole entry): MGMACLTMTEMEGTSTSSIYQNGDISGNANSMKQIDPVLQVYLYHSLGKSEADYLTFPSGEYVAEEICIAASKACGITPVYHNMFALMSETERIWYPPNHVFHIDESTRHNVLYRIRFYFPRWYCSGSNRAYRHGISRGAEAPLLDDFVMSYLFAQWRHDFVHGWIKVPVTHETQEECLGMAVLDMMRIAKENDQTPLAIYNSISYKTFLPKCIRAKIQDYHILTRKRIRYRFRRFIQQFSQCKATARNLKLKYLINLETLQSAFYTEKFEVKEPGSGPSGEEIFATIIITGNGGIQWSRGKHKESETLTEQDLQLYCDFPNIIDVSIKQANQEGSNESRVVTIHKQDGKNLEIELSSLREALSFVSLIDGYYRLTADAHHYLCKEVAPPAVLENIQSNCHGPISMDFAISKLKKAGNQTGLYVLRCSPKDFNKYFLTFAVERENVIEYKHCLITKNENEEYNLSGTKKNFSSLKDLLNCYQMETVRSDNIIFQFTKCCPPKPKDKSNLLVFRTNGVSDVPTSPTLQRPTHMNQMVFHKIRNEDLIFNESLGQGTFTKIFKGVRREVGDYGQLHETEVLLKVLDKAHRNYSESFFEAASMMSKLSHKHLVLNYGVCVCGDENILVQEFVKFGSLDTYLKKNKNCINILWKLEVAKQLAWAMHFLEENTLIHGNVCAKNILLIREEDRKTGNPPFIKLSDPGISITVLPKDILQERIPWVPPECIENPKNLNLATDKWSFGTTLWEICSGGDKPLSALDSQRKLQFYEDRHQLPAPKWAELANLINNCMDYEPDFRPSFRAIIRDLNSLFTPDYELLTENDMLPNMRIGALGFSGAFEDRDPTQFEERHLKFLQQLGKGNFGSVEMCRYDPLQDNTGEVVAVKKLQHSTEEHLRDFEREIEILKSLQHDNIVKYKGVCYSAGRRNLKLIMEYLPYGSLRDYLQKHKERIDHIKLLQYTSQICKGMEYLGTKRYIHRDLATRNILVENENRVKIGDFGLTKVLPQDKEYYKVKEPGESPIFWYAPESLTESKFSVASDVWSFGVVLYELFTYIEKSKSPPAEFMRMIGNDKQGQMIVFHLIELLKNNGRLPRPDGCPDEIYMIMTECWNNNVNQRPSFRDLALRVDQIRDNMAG
Sequence of TYK2 (P29597 whole entry): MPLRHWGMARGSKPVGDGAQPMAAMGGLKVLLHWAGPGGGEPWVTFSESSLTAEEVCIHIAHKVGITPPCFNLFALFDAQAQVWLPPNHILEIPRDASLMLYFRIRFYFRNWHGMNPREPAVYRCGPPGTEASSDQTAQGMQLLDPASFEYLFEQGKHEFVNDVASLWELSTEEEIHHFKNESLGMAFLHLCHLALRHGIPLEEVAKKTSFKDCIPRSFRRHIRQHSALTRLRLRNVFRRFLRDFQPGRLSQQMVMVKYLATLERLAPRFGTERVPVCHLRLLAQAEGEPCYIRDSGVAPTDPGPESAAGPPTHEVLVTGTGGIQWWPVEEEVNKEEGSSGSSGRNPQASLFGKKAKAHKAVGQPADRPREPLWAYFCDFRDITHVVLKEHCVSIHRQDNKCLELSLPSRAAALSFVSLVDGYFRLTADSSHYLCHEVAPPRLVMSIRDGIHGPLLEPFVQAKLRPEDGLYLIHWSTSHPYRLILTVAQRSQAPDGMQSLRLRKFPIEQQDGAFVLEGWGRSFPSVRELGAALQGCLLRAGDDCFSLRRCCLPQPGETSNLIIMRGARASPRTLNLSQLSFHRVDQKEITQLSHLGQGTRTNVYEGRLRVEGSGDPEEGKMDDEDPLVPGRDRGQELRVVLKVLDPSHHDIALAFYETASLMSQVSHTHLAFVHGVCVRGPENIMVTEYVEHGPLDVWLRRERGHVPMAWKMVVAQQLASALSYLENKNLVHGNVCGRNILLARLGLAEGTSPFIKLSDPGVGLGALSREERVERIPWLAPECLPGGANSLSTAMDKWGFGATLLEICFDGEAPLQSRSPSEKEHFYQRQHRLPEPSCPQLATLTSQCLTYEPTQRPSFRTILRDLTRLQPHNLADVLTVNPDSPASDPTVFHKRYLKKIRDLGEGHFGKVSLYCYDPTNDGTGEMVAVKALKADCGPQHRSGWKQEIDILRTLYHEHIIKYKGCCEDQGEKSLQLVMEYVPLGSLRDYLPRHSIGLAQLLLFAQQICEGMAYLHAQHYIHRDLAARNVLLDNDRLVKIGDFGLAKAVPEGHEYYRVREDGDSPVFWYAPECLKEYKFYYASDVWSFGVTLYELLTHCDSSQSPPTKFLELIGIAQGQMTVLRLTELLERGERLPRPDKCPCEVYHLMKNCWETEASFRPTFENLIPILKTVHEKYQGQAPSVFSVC

EC50 [1, 5]	EC50 [2, 6]	Ki [3]	Ki [4]	Structure (SMILES)	EC50 ([1]; Homo sapiens, PBMC)	EC50 ([2]; Homo sapiens, PBMC)
> 20 µM	< 2 µM	0.1 to 1 µM	< 0.01 µM	O=C1NCc2nc(-c3c(F)cccc3F)nc(Nc3ccc(CC(=O)N4CCC[C@H]4CO)cc3)c21 [Compound I-16, (S)-2-(2,6-difluorophenyl)-4-((4-(2-(2-(hydroxyl-methyl)pyrrolidin-1-yl)-2-oxoethyl)phenyl)amino)-6,7-dihydro-5H-pyrrolo[3,4-d]pyrimidin-5]		
				Cc1ccc(Nc2nc(-c3c(F)cccc3F)nc3c2C(=O)NC3)cc1 [Compound I-21, 2-(2,6-difluorophenyl)-4-(p-tolylamino)-6,7-dihydro-5H-pyrrolo[3,4-d]pyrimidin-5-one]	> 20 µM	< 2 µM
> 20 µM	< 2 µM	0.1 to 1 µM	< 0.01 µM	C[C@H]1COCCN1C(=O)Cc1ccc(Nc2nc(-c3c(F)cccc3F)nc3c2C(=O)NC3)cc1 [Compound I-64, (S)-2-(2,6-difluorophenyl)-4-((4-(2-(3-methylmorpholino)-2-oxoethyl)phenyl)amino)-6,7-dihydro-5H-pyrrolo[3,4-d]pyrimidin-5-one]		
2 to 20 µM	< 2 µM	0.01 to 0.1 µM		CC[C@@]1(c2ccc(Nc3nc(-c4c(F)cccc4F)nc4c3C(=O)NC4)cc2)CCNC1=O [Compound I-176, (S)-2-(2,6-difluorophenyl)-4-((4-(3-ethyl-2-oxopyrrolidin-3-yl)phenyl)amino)-6,7-dihydro-5H-pyrrolo[3,4-d]pyrimidin-5-one]		
> 20 µM	< 2 µM	0.1 to 1 µM		CC(C)Oc1ccc(Nc2nc(-c3c(F)cccc3F)nc3c2C(=O)NC3)cc1 [Compound I-181, 2-(2,6-difluorophenyl)-4-((4-isopropoxyphenyl)amino)-6,7-dihydro-5H-pyrrolo[3,4-d]pyrimidin-5-one]		
2 to 20 µM	< 2 µM			O=C1NCc2nc(-c3c(F)cccc3F)cc(Nc3ccc(N4CCCC4)cn3)c21 [Compound I-205, 2-(2,6-difluorophenyl)-4-((5-(pyrrolidin-1-yl)pyridin-2-yl)ami-no)-6,7-dihydro-5H-pyrrolo[3,4-b]pyridin-5-one]		
> 20 µM	< 2 µM	0.1 to 1 µM		O=C1NCc2nc(-c3c(F)cccc3F)cc(Nc3ccc(N4CCOCC4)nc3)c21 [Compound I-238, 2-(2,6-difluorophenyl)-4-((6-morpholinopyridin-3-yl)amino)-6,7-dihydro-5H-pyrrolo[3,4-b]pyridin-5-one]		
2 to 20 µM	< 2 µM	0.01 to 0.1 µM		CC(C)N1CCN(c2ccc(Nc3cc(-c4c(F)cccc4F)nc4c3C(=O)NC4)nc2)C(=O)C1 [Compound I-242, 2-(2,6-difluorophenyl)-4-((5-(4-isopropyl-2-oxopiperazin-1-yl)pyridin-2-yl)amino)-6,7-dihydro-5H-pyrrolo[3,4-b]pyridin-5-one]		
2 to 20 µM	< 2 µM	0.01 to 0.1 µM		CC(C)N1CCN(C(=O)c2ccc(Nc3cc(-c4c(F)cccc4F)nc4c3C(=O)NC4)cc2)CC1 [Compound I-243, 2-(2,6-difluorophenyl)-4-((4-(4-isopropylpiperazine-1-carbo-nyl)phenyl)amino)-6,7-dihydro-5H-pyrrolo[3,4-b]pyridin-5-one]		
< 2 µM	< 2 µM	0.01 to 0.1 µM		O=C1NCc2nc(-c3c(F)cccc3F)cc(Nc3ccc(N4CCN(CC(F)F)CC4)cn3)c21 [Compound I-247, 4-((5-(4-(2,2-difluoroethyl)piperazin-1-yl)pyridin-2-yl)amino)-2-(2,6-difluorophenyl)-6,7-dihydro-5H-pyrrolo[3,4-b]pyridin-5-one]		
< 2 µM	< 2 µM	0.01 to 0.1 µM		O=C1NCc2nc(-c3c(F)cccc3F)cc(Nc3ccc(N4CCOCC4=O)cn3)c21 [Compound I-248, 4-(6-((2-(2,6-difluorophenyl)-5-oxo-6,7-dihydro-5H-pyrrolo[3,4-b]pyridin-4-yl)amino)pyridin-3-yl)morpholin-3-one]		
> 20 µM	< 2 µM	0.01 to 0.1 µM		O=C1NCc2nc(-c3c(F)cccc3F)cc(Nc3ccc(N4CCCOCC4)cn3)c21 [Compound I-253, 4-((5-(1,4-oxazepan-4-yl)pyridin-2-yl)amino)-2-(2,6-difluoro-phenyl)-6,7-dihydro-5H-pyrrolo[3,4-b]pyridin-5-one]		
< 2 µM	< 2 µM			CC(C)N1CCN(c2ccc(Nc3cc(-c4c(F)cccc4F)nc4c3C(=O)NC4)nc2)CC1 [Compound I-256, 2-(2,6-difluorophenyl)-4-((5-(4-isopropylpiperazin-1-yl)pyridin-2-yl)amino)-6,7-dihydro-5H-pyrrolo[3,4-b]pyridin-5-one]		
2 to 20 µM	< 2 µM	0.01 to 0.1 µM		O=C1NCc2nc(-c3c(F)cccc3F)cc(Nc3ccc(C(=O)N4CCCCC4)cc3)c21 [Compound I-257, 2-(2,6-difluorophenyl)-4-((4-(piperidine-1-carbonyl)phenyl)-amino)-6,7-dihydro-5H-pyrrolo[3,4-b]pyridin-5-one]		
> 20 µM	< 2 µM	0.1 to 1 µM		CCNC(=O)c1ccc(Nc2cc(-c3c(F)cccc3F)nc3c2C(=O)NC3)cn1 [Compound I-260, 5-((2-(2,6-difluorophenyl)-5-oxo-6,7-dihydro-5H-pyrrolo[3,4-b]pyridin-4-yl)amino)-N-ethylpicolinamide]		
< 2 µM	< 2 µM	0.01 to 0.1 µM		O=C1NCc2nc(-c3c(F)cccc3F)cc(Nc3ccc(N4CCN(CCC(F)(F)F)CC4)cn3)c21 [Compound I-262, 2-(2,6-difluorophenyl)-4-((5-(4-(3,3,3-trifluoropropyl)piperazin-1-yl)pyridin-2-yl)amino)-6,7-dihydro-5H-pyrrolo[3,4-b]pyridin-5-one]		
2 to 20 µM	< 2 µM	0.01 to 0.1 µM		C[C@@H]1CCC[C@@H](C)N1c1ccc(Nc2cc(-c3c(F)cccc3F)nc3c2C(=O)NC3)nc1 [Compound I-265, 2-(2,6-difluorophenyl)-4-((5-((2R,6R)-2,6-dimethylpiperidin-1-yl)pyridin-2-yl)amino)-6,7-dihydro-5H-pyrrolo[3,4-b]pyridin-5-one]		
< 2 µM	< 2 µM			CC1(C)CCC(=O)N1c1ccc(Nc2cc(-c3c(F)cccc3F)nc3c2C(=O)NC3)nc1 [Compound I-272, 2-(2,6-difluorophenyl)-4-((5-(2,2-dimethyl-5-oxopyrrolidin-1-yl)pyridin-2-yl)amino)-6,7-dihydro-5H-pyrrolo[3,4-b]pyridin-5-one]		
< 2 µM	< 2 µM	0.01 to 0.1 µM		CC1(C)OCCN(c2ccc(Nc3cc(-c4c(F)cccc4F)nc4c3C(=O)NC4)nc2)C1=O [Compound I-273, 4-(6-((2-(2,6-difluorophenyl)-5-oxo-6,7-dihydro-5H-pyrrolo[3,4-b]pyridin-4-yl)amino)pyridin-3-yl)-2,2-dimethylmorpholin-3-one]		

Structure (SMILES)	EC50 [1, 5]	EC50 [2, 6]	Ki [3]	Ki [4]	EC50 ([1]; Homo sapiens, PBMC)	EC50 ([2]; Homo sapiens, PBMC)
CCNC(=O)Cc1ccc(Nc2nc(-c3ccccc3Cl)nc3c2C(=O)NC3)cc1 [Compound I-20, 2-(4-((2-(2-chlorophenyl)-5-oxo-6,7-dihydro-5H-pyrrolo[3,4-d]pyrimidin-4-yl)amino)phenyl)-N-ethylacetamide]		< 2 µM	0.1 to 1 µM	0.01 to 0.1 µM	> 20 µM	
CCNC(=O)c1ccc(Nc2nc(-c3c(F)cccc3F)nc3c2C(=O)NC3)cc1 [Compound I-195, 4-((2-(2,6-difluorophenyl)-5-oxo-6,7-dihydro-5H-pyrrolo[3,4-d]pyrimidin-4-yl)amino)-N-ethylbenzamide]	> 20 µM		0.1 to 1 µM			< 2 µM
CC1(O)CN(c2ccc(Nc3cc(-c4c(F)cccc4F)nc4c3C(=O)NC4)nc2)C1 [Compound I-228, 2-(2,6-difluorophenyl)-4-((5-(3-hydroxy-3-methylazetidin-1-yl)pyridin-2-yl)amino)-6,7-dihydro-5H-pyrrolo[3,4-b]pyridin-5-one]	2 to 20 µM		0.01 to 0.1 µM			< 2 µM
O=C1NCc2nc(-c3c(F)cccc3F)cc(Nc3ccc(N4CC(F)(F)C4)cn3)c21 [Compound I-229, 4-((5-(3,3-difluoroazetidin-1-yl)pyridin-2-yl)amino)-2-(2,6-difluorophenyl)-6,7-dihydro-5H-pyrrolo[3,4-b]pyridin-5-one]	2 to 20 µM		0.01 to 0.1 µM			< 2 µM
